The source of these data is patent US8013153B2, “Substituted pyrimidine kinase inhibitors” (Janssen Pharmaceutica, N.V., priority 2006, dated 2011).

“Also recorded” adds a separate entry of the source.

The target of one assay is T1, murine Aurora-A (Mus musculus, UniProt P97477).
T1 construct: replaced with the full length protein encoding the murine Aurora-A; made in house; host or cells: sf9 insect cells
T1 sequence (P97477 1-395): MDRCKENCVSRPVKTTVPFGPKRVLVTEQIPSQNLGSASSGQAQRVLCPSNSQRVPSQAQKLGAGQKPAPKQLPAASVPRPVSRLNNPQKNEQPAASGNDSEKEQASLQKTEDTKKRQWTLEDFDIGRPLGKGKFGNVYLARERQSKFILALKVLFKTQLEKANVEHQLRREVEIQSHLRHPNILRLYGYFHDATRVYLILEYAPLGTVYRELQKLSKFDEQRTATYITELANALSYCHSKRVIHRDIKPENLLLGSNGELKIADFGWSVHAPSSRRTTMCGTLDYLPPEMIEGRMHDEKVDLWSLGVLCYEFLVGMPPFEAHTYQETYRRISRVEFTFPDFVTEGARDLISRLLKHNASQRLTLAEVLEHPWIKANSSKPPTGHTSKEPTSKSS
The assay is described as follows: Aurora-A Screening Assay. The assay is classed as biochemical.

The next assay deals with V600E Raf mutant (Homo sapiens, UniProt P15056, V600E). The assay is described as follows: RAF Kinase Screening Assay (V600E Raf mutant). As to conditions: Compound 50 tested at 30 μM.
Chain of V600E Raf mutant (P15056 whole entry V600E): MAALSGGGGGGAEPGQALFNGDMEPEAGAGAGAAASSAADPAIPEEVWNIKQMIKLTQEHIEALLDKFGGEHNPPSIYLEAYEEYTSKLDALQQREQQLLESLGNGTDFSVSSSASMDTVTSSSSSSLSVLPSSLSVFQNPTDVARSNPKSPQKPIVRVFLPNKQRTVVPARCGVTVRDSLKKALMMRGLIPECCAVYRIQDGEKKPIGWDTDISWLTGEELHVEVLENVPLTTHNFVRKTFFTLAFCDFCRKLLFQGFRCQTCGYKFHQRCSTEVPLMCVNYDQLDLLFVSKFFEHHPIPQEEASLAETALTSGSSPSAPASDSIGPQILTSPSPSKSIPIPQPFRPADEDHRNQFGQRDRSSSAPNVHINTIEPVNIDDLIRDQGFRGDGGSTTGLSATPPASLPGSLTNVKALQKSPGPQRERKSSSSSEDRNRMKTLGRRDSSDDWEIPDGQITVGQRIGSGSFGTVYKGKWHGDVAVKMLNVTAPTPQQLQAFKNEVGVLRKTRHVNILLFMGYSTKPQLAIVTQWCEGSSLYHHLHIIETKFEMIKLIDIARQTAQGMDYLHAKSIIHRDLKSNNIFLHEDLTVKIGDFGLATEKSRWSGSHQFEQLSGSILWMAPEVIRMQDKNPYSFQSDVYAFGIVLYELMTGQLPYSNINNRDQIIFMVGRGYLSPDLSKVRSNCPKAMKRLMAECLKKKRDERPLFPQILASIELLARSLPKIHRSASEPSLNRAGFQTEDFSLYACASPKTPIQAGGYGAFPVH
Another assay deals with tyrosine kinase KIT (Homo sapiens, UniProt P10721). The assay is described as follows: KIT Kinase Screening Assay.
Chain of tyrosine kinase KIT (P10721 26-976): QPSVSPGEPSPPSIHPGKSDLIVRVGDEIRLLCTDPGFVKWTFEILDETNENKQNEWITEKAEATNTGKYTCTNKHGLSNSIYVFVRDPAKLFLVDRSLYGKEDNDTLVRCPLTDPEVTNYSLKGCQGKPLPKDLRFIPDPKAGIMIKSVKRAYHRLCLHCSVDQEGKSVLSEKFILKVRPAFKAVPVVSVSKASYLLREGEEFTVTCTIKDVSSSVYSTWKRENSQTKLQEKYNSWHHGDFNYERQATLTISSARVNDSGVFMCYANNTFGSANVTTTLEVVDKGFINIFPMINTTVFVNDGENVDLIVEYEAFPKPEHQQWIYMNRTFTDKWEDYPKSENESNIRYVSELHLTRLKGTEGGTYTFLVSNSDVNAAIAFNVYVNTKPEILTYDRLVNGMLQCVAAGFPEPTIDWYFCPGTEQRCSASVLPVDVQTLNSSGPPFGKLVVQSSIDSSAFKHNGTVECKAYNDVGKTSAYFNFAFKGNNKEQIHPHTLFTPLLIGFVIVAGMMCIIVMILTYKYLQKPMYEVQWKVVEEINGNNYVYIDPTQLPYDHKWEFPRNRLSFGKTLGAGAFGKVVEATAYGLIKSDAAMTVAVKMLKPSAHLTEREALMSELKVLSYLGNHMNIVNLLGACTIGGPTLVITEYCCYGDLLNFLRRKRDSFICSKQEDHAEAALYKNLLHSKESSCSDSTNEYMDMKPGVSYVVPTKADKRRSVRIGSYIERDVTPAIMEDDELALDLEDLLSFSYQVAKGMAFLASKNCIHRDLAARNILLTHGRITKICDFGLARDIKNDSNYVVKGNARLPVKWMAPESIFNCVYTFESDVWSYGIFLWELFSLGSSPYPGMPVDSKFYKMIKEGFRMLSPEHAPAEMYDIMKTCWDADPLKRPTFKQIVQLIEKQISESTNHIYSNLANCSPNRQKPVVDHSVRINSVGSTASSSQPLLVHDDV

With `CCNC(=O)Nc1ccc(Oc2ncnc(N)c2/C=N/OC)cc1Cl` [Cpd 50, 1-{4-[6-amino-5-(methoxyimino-methyl)-pyrimidin-4-yloxy]-2-chloro-phenyl}-3-ethyl-urea], the values for the IC50 against murine Aurora-A and against tyrosine kinase KIT were more than 100000 nM and 500 nM, respectively. On V600E Raf mutant, the “activity against the V600E Raf mutant” value is “no activity; also recorded: not active”.
